# From patent publication US10669270B2, “Amide-sulfamide derivatives, compositions, and uses related to CXCR4 inhibition” (Emory University, priority 2016, dated 2020)
# Entries after “also recorded” stand apart in the source; their conditions may differ.
# How the values were obtained:
# [1] = tested on: MDA-MB-231 cells; assay: Matrigel invasion assay; assay type: cell-based; conditions: compounds 100 nM; CXCL12α 200 ng/mL; 22 hours
# Description: Matrigel invasion assay was performed by using a Matrigel invasion chamber from Corning Biocoat (Bedford, Mass.). CXCL12α(200 ng/mL; R & D Systems, Minneapolis, Minn.) was added to the bottom chamber to induce the invasion of MDA-MB-231 cells through the Matrigel. The selected compounds (100 nM) or AMD3100 were added to the cells before the cells were seeded in the top chamber. The Matrigel invasion chamber was incubated for 22 hours in a humidified cell culture incubator. First, non-invading cells were removed from the top of the Matrigel with a cotton-tipped swab. Invading cells on the filter at the bottom of the Matrigel were fixed in methanol and stained with hematoxylin and eosin (H & E). The percent of invasion was determined by counting the H&E stained cellc.
# [2] = tested on: xylene-induced ear edema; assay: Xylene-induced ear inflammation suppression test; assay type: in vivo, mice; conditions: for inflammation suppression (mouse ear edema): 10 mg/kg i.p., 30 minutes after xylene, sacrificed 2 hours later; for histological analysis of ear: ear damage, edema, inflammatory cells
# Description: Five mice per group were used to determine the effect of the CXCR4 modulators. The inner and outer surfaces of the right ear of each mouse were treated with a total 30 μL of xylene for the induction of ear edema, whereas the left ear was treated with 30 μL of saline, which was used as a non-inflammation control. The selected compounds were dissolved in 10% DMSO and 90% of 45% (2-hydroxypropyl)-β-cyclodextrin (CD) in PBS. Thirty minutes after the application of xylene, 14 selected compounds were administered intraperitoneally (i.p.) at 10 mg/kg. Control animals received corresponding i.p. injections of the vehicle. The animals were sacrificed 2 hours later, and two ear plugs (7 mm in diameter) were removed from both the treated ear and the untreated ear. Weights of treated and untreated ear plugs were measured. The difference in weight of the two ear plugs was taken as a measure of edematous response. The inflammation-suppression percentage was calculated by comparing the drug-treated group to the control group.
# [3] = target: T1, CXCR4 (Homo sapiens, UniProt P61073); assay: Primary binding affinity screening (competition with biotinylated TN14003 on MDA-MB-231 cells)
# T1 construct: endogenous in cells; host or cells: MDA-MB-231
# T1 sequence (P61073 whole entry): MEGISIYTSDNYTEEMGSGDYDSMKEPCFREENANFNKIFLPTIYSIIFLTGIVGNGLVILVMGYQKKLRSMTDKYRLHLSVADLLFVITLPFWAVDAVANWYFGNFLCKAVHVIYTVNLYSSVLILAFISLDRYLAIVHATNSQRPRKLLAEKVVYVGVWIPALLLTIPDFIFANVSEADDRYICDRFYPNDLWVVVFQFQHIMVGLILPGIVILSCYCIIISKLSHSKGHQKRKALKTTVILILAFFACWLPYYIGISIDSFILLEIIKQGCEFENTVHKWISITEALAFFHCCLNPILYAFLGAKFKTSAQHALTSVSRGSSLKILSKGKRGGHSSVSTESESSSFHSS
# Description: For binding affinity assay, 2×10^4 MDA-MB-231 cells in 300 μL of cell culture medium were seeded in an 8-well slide chamber 2 days before the experiments were conducted. Various concentrations of different compounds (1, 10, 100, or 1000 nM) were added to the separate wells and incubated for 10 minutes at room temperature, and then the cells were fixed in 4% ice-cold paraformaldehyde. The cells were rehydrated in phosphate-buffered saline (PBS). The slides were subsequently incubated for 30 minutes at room temperature with 0.05 μg/mL biotinylated TN14003, washed three times with PBS, and incubated in streptavidin-rhodamine (1:150 dilution; Jackson ImmunoResearch Laboratories, West Grove, Pa.) for 30 minutes at room temperature. Finally, the slides were washed with PBS and mounted in an anti-fade mounting solution (Molecular Probes, Eugene, Oreg.), and the samples were analyzed on a Nikon Eclipse E800 microscope.
# [4] = tested on: CXCR4/CXCL12-mediated Akt phosphorylation; assay: Western blot analysis of Akt phosphorylation; assay type: cell-based
# Description: Forty micrograms of protein were separated by SDS-PAGE and transferred to a PVDF membrane (Bio-Rad, Hercules, Calif., USA). The membrane was blocked for 30 min in a blocking solution (5% milk in Trisbuffered saline containing 0.1% Tween-20) and incubated overnight at 4° C. using monoclonal rabbit anti-phospho-Akt (Ser473) antibody (Cat No., 9271) and monoclonal rabbit anti-Akt (pan) antibody (cat No., 4691) at 1:500 in blocking solution. All antibodies were purchased from Cell Signaling Technology (Danvers, USA). The membrane was incubated for 1 hour with goat anti-rabbit IgG (H+L)-HRP conjugated secondary antibody at 1:10000 (Cat No. 1706515; Bio-rad, Hercules, USA) after washing. Enzyme-linked chemiluminescence was performed to detect hybridized protein bands.
# [5] = tested on: bacterial-infected J774A.1 macrophages; assay: TNF-α secretion by bacterial-infected macrophages; assay type: cell-based
# [6] = Preliminary pharmacokinetic study (plasma stability); assay type: in vitro ADME
# [7] = tested on: MDA-MB-231 cells; assay: Cytotoxicity screening, MDA-MB-231; assay type: cell-based; conditions: at 10 μM
# [8] = tested on: MCF-10A cells; assay: Cytotoxicity screening, MCF-10A; assay type: cell-based; conditions: at 10 μM
melting point [°C],SMILES,Matrigel invasion inhibition compared with AMD3100 [1],inflammation suppression (mouse ear edema) [2] [%],histological analysis of ear [2],further results
,"Cc1nnsc1C(=O)NCc1ccc(CNS(=O)(=O)c2ccc(F)c(F)c2)cc1 [Im, N-(4-((3,4-difluorophenylsulfonamido)methyl)benzyl)-4-methyl-1,2,3-thiadiazole-5-carboxamide]",comparable inhibition to the reference drug AMD3100,54,significantly attenuated the ear damage and decreased the number of inflammatory cells,
176 to 178,"Cc1cc(C(=O)NCc2ccc(CNS(=O)(=O)c3ccc4c(c3)CCO4)cc2)n(C)n1 [If, N-(4-((2,3-dihydrobenzofuran-5-sulfonamido)methyl)benzyl)-1,3-dimethyl-1H-pyrazole-5-carboxamide]",comparable inhibition to the reference drug AMD3100,,,
,O=C(NCc1ccc(CNS(=O)(=O)c2ccc3c(c2)CCO3)cc1)c1scc2c1OCCO2 [Ik],better activity than AMD3100,,,
139 to 141,"O=C(NCc1ccc(CNS(=O)(=O)c2ccccc2)cc1)c1ccccc1 [IIIa, N-(4-(phenylsulfonamidomethyl)benzyl)benzamide]",,62,,"potency compared with AMD3100 ([3]; EC relative to AMD3100): 1000 fold; EC ([3]; MDA-MB-231 cells, compounds at 1, 10, 100, or 1000 nM, biotinylated TN14003): 1 nM"
,"O=C(NCc1ccc(CNS(=O)(=O)c2ccc(F)cc2F)cc1)c1cncnc1 [Ig, N-(4-((2,4-difluorophenylsulfonamido)methyl)benzyl)pyrimidine-5-carboxamide]",better activity than AMD3100,56,significantly attenuated the ear damage and decreased the number of inflammatory cells,CXCR4/CXCL12-mediated phosphorylation of Akt [4]: blocked the phosphorylation of Akt; also recorded: blocked the CXCR4/CXCL12-mediated Akt phosphorylation in a dose-dependent manner; TNF-α secretion ([5]; result in words): significantly suppressed
137 to 139,"O=C(NCc1ccc(CNS(=O)(=O)c2ccc3c(c2)CCO3)cc1)c1cccnc1 [Ia, N-(4-((2,3-dihydrobenzofuran-5-sulfonamido)methyl)benzyl)nicotinamide]",better activity than AMD3100,,,

SMILES,melting point [°C],Matrigel invasion inhibition compared with AMD3100 [1],inflammation suppression (mouse ear edema) [2] [%],histological analysis of ear [2],further results
"Cc1ccc(S(=O)(=O)NCc2ccc(CNC(=O)c3ccc(F)cc3)cc2)cc1 [IIj, 4-Fluoro-N-(4-((4-methylphenylsulfonamido)methyl)benzyl)benzamide]",187 to 189,,75,attenuated ear edema and damage substantially,CXCR4/CXCL12-mediated phosphorylation of Akt [4]: blocked the CXCR4/CXCL12-mediated phosphorylation of Akt in a dose-dependent manner; attenuation of the amount of TNF-α [5]: 59%; plasma stability [6]: favourable plasma stability; inhibition of proliferation (cytotoxicity) [7]: did not inhibit the proliferation; inhibition of proliferation (cytotoxicity) [8]: did not inhibit the proliferation
